How the values were obtained:
barnyard grass [1] = assay: Test Example 3: herbicidal effect by foliage application, Wagner pot (Table 18, symbol H); format: in vivo, barnyard grass (Echinochloa crus-galli); details: amount of applied herbicide 320 g/ha
How it was run: (§1)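 Plants were sown in alluvial soil held under 0.1–0.5 cm standing water and grown 14 days in a greenhouse at 25–30 °C. An emulsifiable formulation, water-diluted to the set dose, was then sprayed onto the foliage, and effects were scored three weeks later using previously defined criteria.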

Chinese sprangletop = assay: Test Example 3: herbicidal effect by foliage application, Wagner pot (Table 18, symbol D); format: in vivo, chinese sprangletop (Leptochloa chinensis); details: amount of applied herbicide 320 g/ha
How it was run: as §1

rice flat sedge = assay: Test Example 3: herbicidal effect by foliage application, Wagner pot (Table 18, symbol E); format: in vivo, rice flat sedge (Cyperus iria); details: amount of applied herbicide 320 g/ha
How it was run: as §1

southern crabgrass [2] = assay: Test Example 4: herbicidal effect by soil treatment (Table 19, symbol F); format: in vivo, southern crabgrass (Digitaria ciliaris); details: amount of applied herbicide 320 g/ha
How it was run: (§2)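 Applied as a water-diluted emulsion, the compound was sprayed onto soil covering newly sown seeds. Evaluation came three weeks after application, in a greenhouse held at 25° C. to 30° C.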

green foxtail [3] = assay: Test Example 4: herbicidal effect by soil treatment (Table 19, symbol G); format: in vivo, green foxtail (Setaria viridis); details: amount of applied herbicide 320 g/ha
How it was run: as §2

barnyard grass [4] = assay: Test Example 4: herbicidal effect by soil treatment (Table 19, symbol H); format: in vivo, barnyard grass (Echinochloa crus-galli); details: amount of applied herbicide 320 g/ha
How it was run: as §2

wild oat [5] = assay: Test Example 4: herbicidal effect by soil treatment (Table 19, symbol I); format: in vivo, wild oat (Avena fatua); details: amount of applied herbicide 320 g/ha
How it was run: as §2

blackgrass [6] = assay: Test Example 4: herbicidal effect by soil treatment (Table 19, symbol J); format: in vivo, blackgrass (Alopecurus myosuroides); details: amount of applied herbicide 320 g/ha
How it was run: as §2

Italian ryegrass [7] = assay: Test Example 4: herbicidal effect by soil treatment (Table 19, symbol K); format: in vivo, Italian ryegrass (Lolium multiflorum); details: amount of applied herbicide 320 g/ha
How it was run: as §2

windgrass [8] = assay: Test Example 4: herbicidal effect by soil treatment (Table 19, symbol L); format: in vivo, windgrass (Apera spica-venti); details: amount of applied herbicide 320 g/ha
How it was run: as §2

velvetleaf [9] = assay: Test Example 4: herbicidal effect by soil treatment (Table 19, symbol M); format: in vivo, velvetleaf (Abutilon theophrasti); details: amount of applied herbicide 320 g/ha
How it was run: as §2

redroot pigweed [10] = assay: Test Example 4: herbicidal effect by soil treatment (Table 19, symbol N); format: in vivo, redroot pigweed (Amaranthus retroflexus); details: amount of applied herbicide 320 g/ha
How it was run: as §2

lambsquarters [11] = assay: Test Example 4: herbicidal effect by soil treatment (Table 19, symbol O); format: in vivo, lambsquarters (Chenopodium album); details: amount of applied herbicide 320 g/ha
How it was run: as §2

chickweed [12] = assay: Test Example 4: herbicidal effect by soil treatment (Table 19, symbol P); format: in vivo, common chickweed (Stellaria media); details: amount of applied herbicide 320 g/ha
How it was run: as §2

false cleavers = assay: Test Example 4: herbicidal effect by soil treatment (Table 19, symbol Q); format: in vivo, false cleavers (Galium spurium); details: amount of applied herbicide 320 g/ha
How it was run: as §2

persian speedwell [13] = assay: Test Example 4: herbicidal effect by soil treatment (Table 19, symbol R); format: in vivo, Persian speedwell (Veronica persica); details: amount of applied herbicide 320 g/ha
How it was run: as §2

southern crabgrass [14] = assay: Test Example 5: herbicidal effect by foliage application, plastic box (Table 20, symbol F); format: in vivo, southern crabgrass (Digitaria ciliaris); details: foliage application
How it was run: (§3)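 Sow seeds spot-wise in sterilized diluvial soil; cover with ~1.5 cm soil. Grow 14 days in greenhouse, 25° C. to 30° C. Spray foliage with emulsion diluted to predetermined amount. Rate effect after 3 weeks.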

green foxtail [15] = assay: Test Example 5: herbicidal effect by foliage application, plastic box (Table 20, symbol G); format: in vivo, green foxtail (Setaria viridis); details: foliage application
How it was run: as §3

barnyard grass [16] = assay: Test Example 5: herbicidal effect by foliage application, plastic box (Table 20, symbol H); format: in vivo, barnyard grass (Echinochloa crus-galli); details: foliage application
How it was run: as §3

wild oat [17] = assay: Test Example 5: herbicidal effect by foliage application, plastic box (Table 20, symbol I); format: in vivo, wild oat (Avena fatua); details: foliage application
How it was run: as §3

blackgrass [18] = assay: Test Example 5: herbicidal effect by foliage application, plastic box (Table 20, symbol J); format: in vivo, blackgrass (Alopecurus myosuroides); details: foliage application
How it was run: as §3

Italian ryegrass [19] = assay: Test Example 5: herbicidal effect by foliage application, plastic box (Table 20, symbol K); format: in vivo, Italian ryegrass (Lolium multiflorum); details: foliage application
How it was run: as §3

windgrass [20] = assay: Test Example 5: herbicidal effect by foliage application, plastic box (Table 20, symbol L); format: in vivo, windgrass (Apera spica-venti); details: foliage application
How it was run: as §3

velvetleaf [21] = assay: Test Example 5: herbicidal effect by foliage application, plastic box (Table 20, symbol M); format: in vivo, velvetleaf (Abutilon theophrasti); details: foliage application
How it was run: as §3

redroot pigweed [22] = assay: Test Example 5: herbicidal effect by foliage application, plastic box (Table 20, symbol N); format: in vivo, redroot pigweed (Amaranthus retroflexus); details: foliage application
How it was run: as §3

lambsquarters [23] = assay: Test Example 5: herbicidal effect by foliage application, plastic box (Table 20, symbol O); format: in vivo, lambsquarters (Chenopodium album); details: foliage application
How it was run: as §3

chickweed [24] = assay: Test Example 5: herbicidal effect by foliage application, plastic box (Table 20, symbol P); format: in vivo, common chickweed (Stellaria media); details: foliage application
How it was run: as §3

persian speedwell [25] = assay: Test Example 5: herbicidal effect by foliage application, plastic box (Table 20, symbol R); format: in vivo, Persian speedwell (Veronica persica); details: foliage application
How it was run: as §3

[26] = AAH 320 g/ha, evaluated three weeks after application
[27] = 320 g/ha, three weeks after application

Row | Structure (SMILES) | herbicidal effect on H: barnyard grass (barnyard grass [1]) | herbicidal effect on D: Chinese sprangletop (Chinese sprangletop) | herbicidal effect on E: rice flat sedge (rice flat sedge) | herbicidal effect, F: southern crabgrass (southern crabgrass [2]) | herbicidal effect, G: green foxtail (green foxtail [3]) | herbicidal effect, H: barnyard grass (barnyard grass [4]) | herbicidal effect, I: wild oat (wild oat [5]) | herbicidal effect, J: blackgrass (blackgrass [6]) | herbicidal effect, K: Italian ryegrass (Italian ryegrass [7]) | herbicidal effect, L: windgrass (windgrass [8]) | herbicidal effect, M: velvetleaf (velvetleaf [9]) | herbicidal effect, N: redroot pigweed (redroot pigweed [10]) | herbicidal effect, O: lambsquarters (lambsquarters [11]) | herbicidal effect, P: chickweed (chickweed [12]) | herbicidal effect, Q: false cleavers (false cleavers) | herbicidal effect, R: persian speedwell (persian speedwell [13]) | further results
1 | CCn1nc(C)c(O)c(-c2c(-c3ccccc3OC)sc3ccc(F)cc23)c1=O [2-404] | 3 (Herbicidal rate of 40% or more and less than 70%) | 0 (Herbicidal rate of 5% or less (almost no effect)) | 3 (Herbicidal rate of 40% or more and less than 70%) | 0 (Herbicidal rate of 5% or less (almost no effect)) | 0 (Herbicidal rate of 5% or less (almost no effect)) | 0 (Herbicidal rate of 5% or less (almost no effect)) | 0 (Herbicidal rate of 5% or less (almost no effect)) | 0 (Herbicidal rate of 5% or less (almost no effect)) | 0 (Herbicidal rate of 5% or less (almost no effect)) | 0 (Herbicidal rate of 5% or less (almost no effect)) | 0 (Herbicidal rate of 5% or less (almost no effect)) | 3 (Herbicidal rate of 40% or more and less than 70%) | 3 (Herbicidal rate of 40% or more and less than 70%) | 0 (Herbicidal rate of 5% or less (almost no effect)) | 0 (Herbicidal rate of 5% or less (almost no effect)) | 0 (Herbicidal rate of 5% or less (almost no effect)) | F: southern crabgrass, herbicidal effect (criteria 0-5) (southern crabgrass [14]; [26]): 2 (Herbicidal rate of 20% or more and less than 40%); G: green foxtail, herbicidal effect (criteria 0-5) (green foxtail [15]; [26]): 1 (Herbicidal rate of 5% or more and less than 20%); H: barnyard grass, herbicidal effect (criteria 0-5) (barnyard grass [16]; [26]): 3 (Herbicidal rate of 40% or more and less than 70%); I: wild oat, herbicidal effect (criteria 0-5) (wild oat [17]; [26]): 0 (Herbicidal rate of 5% or less (almost no effect)); J: blackgrass, herbicidal effect (criteria 0-5) (blackgrass [18]; [26]): 0 (Herbicidal rate of 5% or less (almost no effect)); K: Italian ryegrass, herbicidal effect (criteria 0-5) (Italian ryegrass [19]; [26]): 0 (Herbicidal rate of 5% or less (almost no effect)); L: windgrass, herbicidal effect (criteria 0-5) (windgrass [20]; [26]): 0 (Herbicidal rate of 5% or less (almost no effect)); M: velvetleaf, herbicidal effect (criteria 0-5) (velvetleaf [21]; [26]): 3 (Herbicidal rate of 40% or more and less than 70%); N: redroot pigweed, herbicidal effect (criteria 0-5) (redroot pigweed [22]; [26]): 5 (Herbicidal rate of 90% or more (almost completely withered)); O: lambsquarters, herbicidal effect (criteria 0-5) (lambsquarters [23]; [26]): 3 (Herbicidal rate of 40% or more and less than 70%); P: chickweed, herbicidal effect (criteria 0-5) (chickweed [24]; [26]): 5 (Herbicidal rate of 90% or more (almost completely withered)); R: persian speedwell, herbicidal effect (criteria 0-5) (persian speedwell [25]; [26]): 5 (Herbicidal rate of 90% or more (almost completely withered))
2 | C=CCSc1ccc(-c2sc3ccc(F)cc3c2-c2c(O)c(C)nn(C)c2=O)cc1 [2-422] | 5 (Herbicidal rate of 90% or more (almost completely withered)) | 3 (Herbicidal rate of 40% or more and less than 70%) | 5 (Herbicidal rate of 90% or more (almost completely withered)) | 1 (Herbicidal rate of 5% or more and less than 20%) | 2 (Herbicidal rate of 20% or more and less than 40%) | 1 (Herbicidal rate of 5% or more and less than 20%) | 0 (Herbicidal rate of 5% or less (almost no effect)) | 0 (Herbicidal rate of 5% or less (almost no effect)) | 0 (Herbicidal rate of 5% or less (almost no effect)) | 0 (Herbicidal rate of 5% or less (almost no effect)) | 1 (Herbicidal rate of 5% or more and less than 20%) | 5 (Herbicidal rate of 90% or more (almost completely withered)) | 3 (Herbicidal rate of 40% or more and less than 70%) | 0 (Herbicidal rate of 5% or less (almost no effect)) | 0 (Herbicidal rate of 5% or less (almost no effect)) | 0 (Herbicidal rate of 5% or less (almost no effect)) | F: southern crabgrass, herbicidal effect grade (southern crabgrass [14]; [27]): 2 (Herbicidal rate of 20% or more and less than 40%); G: green foxtail, herbicidal effect grade (green foxtail [15]; [27]): 5 (Herbicidal rate of 90% or more (almost completely withered)); H: barnyard grass, herbicidal effect grade (barnyard grass [16]; [27]): 5 (Herbicidal rate of 90% or more (almost completely withered)); I: wild oat, herbicidal effect grade (wild oat [17]; [27]): 5 (Herbicidal rate of 90% or more (almost completely withered)); J: blackgrass, herbicidal effect grade (blackgrass [18]; [27]): 4 (Herbicidal rate of 70% or more and less than 90%); K: Italian ryegrass, herbicidal effect grade (Italian ryegrass [19]; [27]): 5 (Herbicidal rate of 90% or more (almost completely withered)); L: windgrass, herbicidal effect grade (windgrass [20]; [27]): 5 (Herbicidal rate of 90% or more (almost completely withered)); M: velvetleaf, herbicidal effect grade (velvetleaf [21]; [27]): 5 (Herbicidal rate of 90% or more (almost completely withered)); N: redroot pigweed, herbicidal effect grade (redroot pigweed [22]; [27]): 5 (Herbicidal rate of 90% or more (almost completely withered)); O: lambsquarters, herbicidal effect grade (lambsquarters [23]; [27]): 5 (Herbicidal rate of 90% or more (almost completely withered)); P: chickweed, herbicidal effect grade (chickweed [24]; [27]): 5 (Herbicidal rate of 90% or more (almost completely withered)); R: persian speedwell, herbicidal effect grade (persian speedwell [25]; [27]): 5 (Herbicidal rate of 90% or more (almost completely withered))

Reference: patent US20230085307A1, “PYRIDAZINONE COMPOUND AND HERBICIDE” (NISSAN CHEMICAL CORPORATION, priority 2019, published 2023)
